Source: patent US7507727B2, “Substituted quinobenzoxazine analogs and methods of using thereof” (Cylene Pharmaceuticals, Inc., priority 2003, dated 2009)
Like-named read-outs stand apart in the source and are kept apart here.

Assays:
[1] = system: HeLa cells; test: MTS cell proliferation and/or cytotoxicity assay; assay type: cell-based, Human; conditions: Homo sapiens, HeLa
Method: Cell culture. Human cervical epithelial cells (HeLa cells) were obtained from American Type Culture Collection (Manassas, Va.). Cells were grown in Eagle's minimum essential medium (MEM, Hyclone, Utah) supplemented with 2 mM Glutamine, 0.1 mM nonessential amino acid, 1 mM Na Pyruvate, 1.5 g/L NaHCO3, 50 mg/L gentamicin, and 10% fetal bovine serum (Hyclone, USA) in a humidified atmosphere of 5% CO2 at 37° C.
MTS assays. Antiproliferative effects of the compounds were tested by the CellTiter 96 AQueous assay (Promega, WI), which is a calorimetric assay for determining the number of viable cells. (See, e.g., Wang, L., et al., Methods Cell Sci (1996) 18:249-255). In one example, cells (4,500 cells/well) were seeded on 96 well flat bottom plates (Corning, N.Y.) in 100 μl of culture medium without any anticancer drug on day 0, and the culture medium was exchanged for that //contained anticancer drugs at various concentrations on day 1. After incubation for 3 days under normal growth conditions (on day 4), the monolayers were washed once in PBS, and the medium was switched to 100 μl of PBS in each of the 96 well plate. After mixing MTS and PMS at the ratio of 20:1, 20 μl of MTS/PMS solution was added to each of the 96 well plate and incubated for 4 hours in a humidified atmosphere of 5% CO2 at 37° C. The absorbance was read at 490 nm using FLUOstar Galaxy 96 well plate reader (BMG Labtechnologies, Germany). μM concentrations (MTS data) reported in Table 1 are concentrations at which 50% of antiproliferative cell response is seen.

[2] = biological target: c-Myc template DNA (c-myc quadruplex); test: Quadruplex binding / stop assay (Taq polymerase arrest, capillary electrophoresis)
[3] = HeLa cells, MTS, read-out: Hela MTS
[4] = read-out: S DATA, Table 1D, stop assay data
[5] = 72 h, concentration at which 50% of antiproliferative cell response is seen, 3 days incubation, read-out: MTS Data Hella
[6] = read-out: Stop Data c-Myc μM, concentration at which 50% of the DNA was arrested (arrested:full-length 1:1)

| SMILES | IC50 [2, 4] | IC50 [2, 6] | IC50 [1, 3] | IC50 [1, 5] |
| --- | --- | --- | --- | --- |
| O=C(NCCN1CCCC1)c1cn2c3c(c(SCCc4ccccn4)c(F)cc3c1=O)Oc1cc3ccccc3cc1-2 [compound 1782] | 3.3 µM |  | 2.1 µM |  |
| CC(C)NCCCNC(=O)c1cn2c3c(c(N4CCC(NC(=O)OC(C)(C)C)C4)c(F)cc3c1=O)Oc1cc3ccccc3cc1-2 (centres unmarked) [compound 312] |  | 1 µM |  | 1.9 µM |
| N[C@@H]1CCN(c2c(F)cc3c(=O)c(C(=O)NCCN4CCCC4)cn4c3c2Oc2ccccc2-4)C1 [compound 112] |  | 1.75 µM |  | 0.22 µM |
| CN(C)CCCCNC(=O)c1cn2c3c(c(N4CC[C@@H](NC(=O)CCN5CCN(C)CC5)C4)c(F)cc3c1=O)Oc1cc3c(cc1-2)oc1ccccc13 [compound 357] |  | 0.75 µM |  | 8.6 µM |
| CCN(CC)CCCC(C)NC(=O)c1cn2c3c(c(N4CC5CCCNC5C4)c(F)cc3c1=O)Oc1cc3ccccc3cc1-2 (centres unmarked) [compound 1727] | 0.75 µM |  | 0.36 µM |  |
| CN1CCCC1CCNc1c(F)cc2c(=O)c(C(=O)NCCN3CCCC3)cn3c4cc5oc6cc([N+](=O)[O-])ccc6[nH]c5cc4oc1c23 (centres unmarked) [compound 571] |  | 0.18 µM |  | 4.8 µM |
| O=C(NCCN1CCCC1)c1cn2c3c(c(NCCCN4CCOCC4)c(F)cc3c1=O)Oc1cc3c(cc1-2)-c1ccccc1C3 [compound 373] |  | 0.75 µM |  | 3.3 µM |
| CCN(CC)CCCC(C)NC(=O)c1cn2c3c(c(N4CCC(c5cnccn5)C4)ccc3c1=O)Oc1cc3ccccc3cc1-2 (centres unmarked) [compound 309] |  | 1 µM |  | 3 µM |
| CN(C)CCCCNC(=O)c1cn2c3c(c(N4CC[C@@H](NC(=O)CCN5CCCCC5)C4)c(F)cc3c1=O)Oc1cc3c(cc1-2)oc1ccccc13 [compound 507] |  | 0.375 µM |  | 3.3 µM |
| CN(C)CCCCNc1c(F)cc2c(=O)c(C(=O)NCCCn3ccnc3)cn3c2c1Oc1cc2c(cc1-3)oc1ccccc12 [compound 509] |  | 0.375 µM |  | 3.1 µM |
| N[C@H]1CCN(c2c(F)cc3c(=O)c(C(=O)NCCN4CCOCC4)cn4c5cc6c(cc5oc2c34)c(=O)c2ccccc26)C1 [compound 579] |  | 0.18 µM |  | 0.49 µM |
| CN1CCCC1CCNC(=O)c1cn2c3cc4oc5cc([N+](=O)[O-])ccc5[nH]c4cc3oc3c(NCCC4CCCN4C)c(F)cc(c1=O)c32 (centres unmarked) [compound 572] |  | 0.18 µM |  | 4.8 µM |
| O=C(CCN1CCCCC1)N[C@@H]1CCN(c2c(F)cc3c(=O)c(C(=O)NCCN4CCCC4)cn4c3c2Oc2cc3c(cc2-4)oc2ccccc23)C1 [compound 308] |  | 1 µM |  | 3.1 µM |
| CCN(CC)CCCC(C)NC(=O)c1cn2c3c(c(N4CCC(c5cnccn5)C4)c(F)cc3c1=O)Oc1ccccc1-2 (centres unmarked) [compound 28] |  | 3 µM |  | 2.5 µM |
| CC1(C)CC(NC(=O)c2cn3c4c(c(N5CC6CCCNC6C5)c(F)cc4c2=O)Oc2cc4ccccc4cc2-3)CC(C)(C)N1 (centres unmarked) [compound 1642] | 0.5 µM |  | 0.18 µM |  |
| CN1CCN(CCCNC(=O)c2cn3c4c(c(N5CC[C@@H](NC(=O)CCN6CCCCC6)C5)c(F)cc4c2=O)Oc2cc4c(cc2-3)oc2ccccc24)CC1 [compound 508] |  | 0.375 µM |  | 3.2 µM |
| CN(C)CCCCNC(=O)c1cn2c3c(c(NCCCN4CCN(C)CC4)ccc3c1=O)Oc1cc3ccccc3cc1-2 [compound 1555] | 0.75 µM |  |  |  |
| O=C(NCCCn1ccnc1)c1cn2c3c(c(NCCCN4CCOCC4)c(F)cc3c1=O)Oc1cc3c(cc1-2)-c1ccccc1C3 [compound 314] |  | 1 µM |  |  |
| CN(C)CCCCNCCC(=O)N[C@@H]1CCN(c2c(F)cc3c(=O)c(C(=O)N4CCOCC4)cn4c3c2Oc2cc3c(cc2-4)oc2ccccc23)C1 [compound 177] |  | 1.75 µM |  |  |
| NC1CCN(c2c(F)cc3c(=O)c(C(=O)NCc4ccccc4N4CCOCC4)cn4c3c2Oc2cc3ccccc3cc2-4)C1 (centres unmarked) [compound 248] |  | 1.75 µM |  |  |
| CN1CCN(CCCNc2c(F)cc3c(=O)c(C(=O)N4CCN(C)CC4)cn4c5cc6c(=O)c7ccccc7c(=O)c6cc5oc2c34)CC1 [compound 170] |  | 1.75 µM |  |  |
| CN(C)CCC(=O)N[C@@H]1CCN(c2c(F)cc3c(=O)c(C(=O)NCCCN4CCN(C)CC4)cn4c3c2Oc2cc3c(cc2-4)oc2ccccc23)C1 [compound 175] |  | 1.75 µM |  |  |
| CN1CCCC1CCNC(=O)c1cn2c3cc4c(cc3oc3c(N5CC[C@H](NC(=O)OC(C)(C)C)C5)c(F)cc(c1=O)c32)c(=O)c1ccccc14 (some centres unmarked) [compound 421] |  | 0.75 µM |  |  |
| O=C(c1cn2c3c(c(NCCN4CCCCC4)c(F)cc3c1=O)Oc1cc3ccccc3cc1-2)N1CCOCC1 [compound 115] |  | 1.75 µM |  |  |

The next lines start with results.

| IC50 [2, 4] | IC50 [2, 6] | SMILES | IC50 [1, 3] | IC50 [1, 5] |
| --- | --- | --- | --- | --- |
| 0.375 µM |  | CN(C)CC(C)(C)CNC(=O)c1cn2c3c(c(N4CC5CCCNC5C4)c(F)cc3c1=O)Oc1cc3ccccc3cc1-2 (centres unmarked) [compound 1644] | 0.65 µM |  |
|  | 0.5 µM | CN1CCCC1CCNC(=O)c1cn2c3c(c(N4CC[C@@H](NC(=O)CCN5CCCCC5)C4)c(F)cc3c1=O)Oc1cc3c(cc1-2)oc1ccccc13 (some centres unmarked) [compound 484] |  | 3.1 µM |
|  | 0.375 µM | O=C(NCCCN1CCOCC1)c1cn2c3c(c(N4CC5CCCNC5C4)c(F)cc3c1=O)Oc1cc3ccccc3cc1-2 (centres unmarked) [compound 547] |  | 0.1 µM |
|  | 0.375 µM | CN1CCCC1CCNC(=O)c1cn2c3c(c(NCCCN(CCO)CCO)c(F)cc3c1=O)Oc1cc3ccccc3cc1-2 (centres unmarked) [compound 534] |  | 0.4 µM |
| 0.375 µM |  | O=C(NCCCN1CCOCC1)c1cn2c3c(c(N4CC5CCCNC5C4)c(F)cc3c1=O)Oc1cc3ccccc3cc1-2 (centres unmarked) [compound 1637] | 0.1 µM |  |
| 0.62 µM |  | CN1CCCC1CCNC(=O)c1cn2c3c(c(N4CCC(N)C4)c(F)cc3c1=O)Nc1cc3ccccc3cc1-2 (centres unmarked) [compound 1645] | 3.3 µM |  |
| 0.75 µM |  | CN1CCCC1CCNC(=O)c1cn2c3c(c(NCCc4ccc(O)c(O)c4)c(F)cc3c1=O)Oc1cc3ccccc3cc1-2 (centres unmarked) [compound 1680] | 1.8 µM |  |
| 0.75 µM |  | CN1CCC(Nc2c(F)cc3c(=O)c(C(=O)NCCC4CCCN4C)cn4c3c2Oc2cc3ccccc3cc2-4)CC1 (centres unmarked) [compound 1690] | 0.31 µM |  |
|  | 0.44 µM | CN(C)CC(C)(C)CNC(=O)c1cn2c3c(c(N4CC5CCCNC5C4)c(F)cc3c1=O)Oc1cc3ccccc3cc1-2 (centres unmarked) [compound 493] |  | 0.4 µM |
|  | 0.375 µM | CN1CCCC1CCNC(=O)c1cn2c3c(c(N4CCC(CCCC5CCNCC5)CC4)c(F)cc3c1=O)Oc1cc3ccccc3cc1-2 (centres unmarked) [compound 535] |  | 0.31 µM |
|  | 0.75 µM | C[C@@H](O)CNc1c(F)cc2c(=O)c(C(=O)NCCC3CCCN3C)cn3c2c1Oc1cc2ccccc2cc1-3 (some centres unmarked) [compound 382] |  | 1.8 µM |
|  | 0.375 µM | CN1CCCC1CCNC(=O)c1cn2c3c(c(N4CC5CCCNC5C4)c(F)cc3c1=O)Oc1cc3ccccc3cc1-2 (centres unmarked) [compound 546] |  | 0.1 µM |
|  | 0.74 µM | CN1CCC[C@@H]1CCNC(=O)c1cn2c3c(c(N4CCC(c5cnccn5)C4)c(F)cc3c1=O)Oc1cc3ccccc3cc1-2 (some centres unmarked) [compound 468] |  |  |
|  | 1.75 µM | CN1CCCC1CCNC(=O)c1cn2c3c(c(NCCCCCO)c(F)cc3c1=O)Oc1cc3ccccc3cc1-2 (centres unmarked) [compound 1469] |  |  |
|  | 1.75 µM | CC(=O)N1CCN(C(=O)c2cn3c4c(c(N5CCC(N)C5)c(F)cc4c2=O)Oc2cc4ccccc4cc2-3)CC1 (centres unmarked) [compound 201] |  |  |
|  | 0.75 µM | CN1CCCC1CCNC(=O)c1cn2c3c(c(NCC4CCN(C(=O)OC(C)(C)C)C4)c(F)cc3c1=O)Oc1cc3ccccc3cc1-2 (centres unmarked) [compound 441] |  |  |
| 0.69 µM |  | CCc1ccc(CCNc2c(F)cc3c(=O)c(C(=O)NCCC4CCCN4C)cn4c3c2Oc2cc3ccccc3cc2-4)cc1OC (centres unmarked) [compound 1679] |  |  |
|  | 1.75 µM | NC1CCN(c2c(F)cc3c(=O)c(C(=O)NCC(O)CO)cn4c3c2Oc2cc3ccccc3cc2-4)C1 (centres unmarked) [compound 300] |  |  |
|  | 0.75 µM | CN1CCCC1CCNC(=O)c1cn2c3c(c(N4CCC(NC(=O)OC(C)(C)C)C4)ccc3c1=O)Oc1cc3ccccc3cc1-2 (centres unmarked) [compound 451] |  |  |
| 0.75 µM |  | CN1CCN(CCCNc2ccc3c(=O)c(C(=O)NCCC4CCCN4C)cn4c3c2Oc2cc3ccccc3cc2-4)CC1 (centres unmarked) [compound 1553] |  |  |
| 0.375 µM |  | CN1CCCC1CCNC(=O)c1cn2c3c(c(NCC4CC(C)(C)N(O)C4(C)C)c(F)cc3c1=O)Oc1cc3ccccc3cc1-2 (centres unmarked) [compound 1668] |  |  |
|  | 1.75 µM | CN1CCCC1CCNC(=O)c1cn2c3c(c(N4CCC(N5CCCCC5)CC4)c(F)cc3c1=O)Oc1cc3ccccc3cc1-2 (centres unmarked) [compound 254] |  |  |
| 10 µM |  | CN1CCCC1CCNC(=O)c1cn2c3c(c([S+]([O-])CCc4cnccn4)c(F)cc3c1=O)Oc1cc3ccccc3cc1-2 (centres unmarked) [compound 1769] |  |  |
| 1.75 µM |  | CN1CCCC1CCNC(=O)c1cn2c3c(c(N(C)C4CCN(Cc5ccccc5)CC4)c(F)cc3c1=O)Oc1cc3ccccc3cc1-2 (centres unmarked) [compound 1487] |  |  |
| > 15 µM |  | NC1CCN(c2c(F)cc3c(=O)c(C(=O)NCC4CCCO4)cn4c3c2Oc2cc3ccccc3cc2-4)C1 (centres unmarked) [compound 1693] |  |  |
